For experiment [1], the system named is mouse model of ovalbumin (OVA)-induced asthma. The experiment is described as follows: Mouse model of ovalbumin (OVA)-induced asthma: MCh-induced AHR (Penh) and eosinophil infiltrate in BALF. As to conditions: three oral doses of 10 mg/kg at 48 h, 24 h, and 1 h prior to assessment; p<0.05. The class given is in vivo. The method, then:
A mouse model of ovalbumin (OVA)-induced asthma was used to screen GSNOR inhibitors for efficacy against methacholine (MCh)-induced bronchoconstriction/airway hyper-responsiveness. This is a widely used and well characterized model that presents with an acute, allergic asthma phenotype with similarities to human asthma. Efficacy of GSNOR inhibitors was assessed using a protocol in which GSNOR inhibitors were administered after OVA sensitization and airway challenge, and prior to challenge with MCh. Bronchoconstriction in response to challenge with increasing doses of MCh was assessed using whole body plethysmography (Penh; Buxco). The amount of eosinophil infiltrate into the bronchoaveolar lavage fluid (BALF) was also determined as a measure of lung inflammation. The effects of GSNOR inhibitors were compared to vehicles and to Combivent (inhaled; IH) as the positive control.
OVA (500 μg/ml) in PBS was mixed with equal volumes of 10% (w/v) aluminum potassium sulfate in distilled water and incubated for 60 min. at room temperature after adjustment to pH 6.5 using 10 N NaOH. After centrifugation at 750×g for 5 min, the OVA/alum pellet was resuspended to the original volume in distilled water. Mice received an intraperitoneal (IP) injection of 100 μg OVA (0.2 mL of 500 μg/mL in normal saline) complexed with alum on day 0. Mice were anesthetized by IP injection of a 0.2-mL mixture of ketamine and xylazine (0.44 and 6.3 mg/mL, respectively) in normal saline and were placed on a board in the supine position. Two hundred fifty micrograms (100 μl of a 2.5 mg/ml) of OVA (on day 8) and 125 μg (50 μl of 2.5 mg/ml) OVA (on days 15, 18, and 21) were placed on the back of the tongue of each animal.
In vivo airway responsiveness to methacholine was measured 24 h after the last OVA challenge in conscious, freely moving, spontaneously breathing mice with whole body plethysmography using a Buxco chamber (Wilmington, N.C.). […] The degree of bronchoconstriction was expressed as enhanced pause (Penh), a calculated dimensionless value, which correlates with the measurement of airway resistance, impedance, and intrapleural pressure in the same mouse. Penh readings were taken and averaged for 4 min. after each nebulization challenge. Penh is calculated as follows: Penh=[(Te/Tr−1)×(PEF/PIF)], where Te is expiration time, Tr is relaxation time, PEF is peak expiratory flow, and PIF is peak inspiratory flow×0.67 coefficient. […]
After measurement of airway hyper-reactivity, the mice were exsanguinated by cardiac puncture, and then BALF was collected from either both lungs or from the right lung after tying off the left lung at the mainstem bronchus. Total BALF cells were counted from a 0.05 mL aliquot, and the remaining fluid was centrifuged at 200×g for 10 min at 4° C. […]

The next experiment addresses T1, GSNOR (Homo sapiens, UniProt P11766).
T1 construct: made in house; host or cells: E. coli (arabinose-induced)
Nature of the experiment: GSNOR assay (inhibition of GSNOR activity, NADH absorbance at 340 nm). The experiment is classed as biochemical. As to conditions: printed as 'about <'; 0.240 mM GSNO, 0.300 mM NADH, pH 7.4, 25° C. The method, then: GSNOR expression and purification is described in Biochemistry 2000, 39, 10720-10729.
GSNOR Fermentation: Pre-cultures were grown from stabs of a GSNOR glycerol stock in 2XYT media containing 100 ug/ml ampicillin after an overnight incubation at 37° C. Cells were then added to fresh 2XYT (4 L) containing ampicillin and grown to an OD (A600) of 0.6-0.9 at 37° C. before induction. GSNOR expression was induced with 0.1% arabinose in an overnight incubation at 20° C.
GSNOR Purification: E. coli cell paste was lysed by nitrogen cavitation and the clarified lysate purified by Ni affinity chromatography on an AKTA FPLC (Amersham Pharmacia). The column was eluted in 20 mM Tris pH 8.0/250 mM NaCl with a 0-500 mM imidazole gradient. Eluted GSNOR fractions containing the Smt-GSNOR fusion were digested overnight with Ulp-1 at 4° C. to remove the affinity tag then re-run on the Ni column under the same conditions. GSNOR was recovered in the flowthrough fraction and for crystallography is further purified by Q-Sepharose and Heparin flowthrough chromatography in 20 mM Tris pH 8.0, 1 mM DTT, 10 uM ZnSO4.
GSNOR Assay: GSNO and enzyme/NADH Solutions are made up fresh each day. The solutions are filtered and allowed to warm to room temperature. GSNO solution: 100 mM NaPO4 (pH 7.4), 0.480 mM GSNO. 396 μL of GSNO Solution is added to a cuvette followed by 8 μL of test compound in DMSO (or DMSO only for full reaction control) and mixed with the pipette tip. Compounds to be tested are made up at a stock concentration of 10 mM in 100% DMSO. 2 fold serial dilutions are done in 100% DMSO. 8 μL of each dilution are added to an assay so that the final concentration of DMSO in the assay is 1%. The concentrations of compounds tested range from 100 to 0.003 μM. Enzyme/NADH solution: 100 mM NaPO4 (pH 7.4), 0.600 mM NADH, 1.0 μg/mL GSNO Reductase. 396 μL of the Enzyme/NADH solution is added to the cuvette to start the reaction. The cuvette is placed in the Cary 3E UV/Visible Spectrophotometer and the change in 340 nm absorbance/min at 25° C. is recorded for 3 minutes. The assays are done in triplicate for each compound concentration. IC50's for each compound are calculated using the standard curve analysis in the Enzyme Kinetics Module of SigmaPlot.
Final assay conditions: 100 mM NaPO4, pH 7.4, 0.240 mM GSNO, 0.300 mM NADH, 0.5 μg/mL GSNO Reductase, and 1% DMSO. Final volume: 800 μL/cuvette.

pIC50: −log10 of the molar value.

T1 sequence (P11766 whole entry): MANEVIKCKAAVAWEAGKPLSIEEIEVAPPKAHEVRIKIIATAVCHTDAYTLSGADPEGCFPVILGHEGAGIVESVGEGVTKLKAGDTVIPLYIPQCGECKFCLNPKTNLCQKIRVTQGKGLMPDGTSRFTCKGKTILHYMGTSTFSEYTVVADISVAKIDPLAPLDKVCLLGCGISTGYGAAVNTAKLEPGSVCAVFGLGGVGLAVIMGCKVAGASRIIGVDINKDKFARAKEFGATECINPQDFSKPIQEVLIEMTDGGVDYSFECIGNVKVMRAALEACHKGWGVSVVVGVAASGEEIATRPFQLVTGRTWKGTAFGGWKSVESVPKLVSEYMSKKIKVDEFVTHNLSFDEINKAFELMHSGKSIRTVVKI

With `O=C(O)c1ccc(-c2ccc3cc(O)ccc3n2)cc1` [Example 3, 4-(6-hydroxyquinolin-2-yl)benzoic acid], the “decrease of eosinophil infiltration in BAL” value in experiment [1] is recorded as 42 % of vehicle control. The pIC50 is the IC50 on a negative log10 scale, so that one unit is a factor of ten. For `O=C(O)c1ccc(-c2ccc3cc(O)ccc3n2)c(Cl)c1` [Example 8, 3-chloro-4-(6-hydroxyquinolin-2-yl)benzoic acid], the pIC50 at GSNOR is more than 7.00. For the same compound, in experiment [1], the “decrease of eosinophil infiltration in BAL” value is reported as 37 % of vehicle control.
